Measurements taken from patent US8623830B2, “Compositions containing α-1-antitrypsin and methods for use” (Beth Israel Deaconess Medical Center, Inc., priority 2006, dated 2014).

Experiments:
[1] = tested on: 1-AZT, a misfolded but functionally active mutant of α1-antitrypsin; details: model cell culture system; cited from earlier work
[2] = cited from earlier work
[3] = tested on: new onset diabetic NOD mice; experiment: Treatment of new onset diabetic NOD mice, blood glucose monitoring (normoglycemia); assay type: in vivo, mouse
Excerpt: Female NOD (NOD/LtJx) mice and NOD.SCID (NOD.CB17-Prkdc^scid/J) were purchased from Jackson Laboratories (Bar Harbor, Me.) at 4 weeks of age and maintained under pathogen-free conditions in a conventional animal facility at Massachusetts General Hospital (Boston, Mass.). All animal studies were approved by our institutional review boards. The blood glucose levels of NOD mice were monitored weekly with the ACCU-CHECK® blood glucose monitor system (Roche, Indianapolis, Ind.). […] For syngeneic islet transplant recipients, blood glucose levels were checked at the time of transplantation, then daily for the first two weeks, and then 2 to 3 times per week afterward.
ARALAST™ (α1-proteinase inhibitor, human) is a major serum serine-protease inhibitor that inhibits the enzymatic activity of neutrophil elastase, cathespin G, proteinase 3, thrombin, trypsin, and chymotrypsin. ARALAST™ was purchased from Baxter (Westlake Village, Calif.) and was given at a dose of 2 mg i.p. every 3 days, for a total of 5 injections.

[4] = subcutaneous injection of 25 mg twice a week; average; cited from earlier work
[5] = tested on: insulin receptor substrate-1 (IRS-1); experiment: In vivo insulin signaling in skeletal muscle, immunoblotting of IRS-1 phosphorylation; design: species or system mouse; details: skeletal muscle of new onset diabetic NOD mice, FIG. 1
Procedure: (§1) FIG. 1 is a pair of bar graphs representing the results obtained from studies of insulin signaling in skeletal muscle. The upper graph charts insulin receptor (IR) phosphorylation and the lower graph charts insulin receptor substrate-1 (IRS-1) phosphorylation in control, diabetic, and treated animals.
(§2) In vivo insulin signaling experiments were performed on mice after a 16 hour fast. Mice were injected i.p. with 20 U/kg BW of human insulin (Eli Lilly) or saline. Skeletal muscle (gastronemius) was dissected and frozen in liquid nitrogen for immunoblotting analysis of insulin signaling proteins.
(§3) Skeletal muscle (gastronemius), obtained in the context of our in vivo insulin signaling studies, was homogenized in a modified radioimmunoprecipitation assay (RIPA) buffer containing 50 mM Tris-HCl, 1 mM EDTA, 1% NP-40, 0.25% sodium deoxycholate, 150 mM NaCl, 1 mM PMSF, 200 μM […], supplemented with 1% protease inhibitor cocktail (Sigma), and 1% tyrosine phosphatase inhibitor cocktail (Sigma). Cell homogenates were incubated on ice for 45 minutes to solubilize all proteins, and insoluble portions were removed by centrifugation at 14,000 g at 4° C. for 15 minutes. Whole cell lysates were separated by SDS-polyacrylamide gel electrophoresis (PAGE). […] The blots were quantified using densitometry (Molecular Dynamics, Sunnvale, Calif.).

insulin receptor (IR) = experiment: In vivo insulin signaling in skeletal muscle, immunoblotting of IR phosphorylation; design: species or system mouse; details: skeletal muscle of new onset diabetic NOD mice, FIG. 1
Procedure: as §1, §2, §3

Compound: O=C(O)CCCc1ccccc1 [PBA, 4-phenylbutyric acid]
- Secretion of 1-AZT [1]: marked increase

Compound: AAT: α1-antitrypsin, plasma serine protease inhibitor (serpin)
- Half life in plasma [2]: approximately six
- Effect of a short course on glycemia [3]: restores normoglycemia

Compound: Etanercept
- Time to peak blood levels [4]: 72 h

Compound: Aralast ™: α1-proteinase inhibitor, human; major serum serine-protease inhibitor, purchased from Baxter
- Phosphorylation of insulin receptor substrate-1 (IRS-1) [5]: restored
- Tyrosyl-phosphorylation of insulin receptor (IR) (insulin receptor (IR)): restored
- Days after treatment (how long the animals have been normoglycemic) ([3]; animals still alive at writing): 90 to 300 days
